# Patent publication US20230086703A1, “N-(4-(5-chloropyridin-3-yl)phenyl)-2-(2-(cyclopropanesulfonamido)pyrimidin-4-yl) butanamide derivatives and related compounds as human CTPS1 inhibitors for the treatment of proliferative diseases” (Step Pharma S.A.S., priority 2019, published 2023)
# Like-named read-outs stand apart in the source and are kept apart here.
# Assays:
# human CTPS1 [1] = target: T1, human CTPS1 (Homo sapiens, UniProt P17812); test: Human CTPS1 enzyme inhibition, ADP-Glo Max assay; format: biochemical
# T1 construct: FLAG (with GG linker); His8 (with GG linker); purchased Proteros biostructures GmbH
# T1 sequence (P17812 1-591): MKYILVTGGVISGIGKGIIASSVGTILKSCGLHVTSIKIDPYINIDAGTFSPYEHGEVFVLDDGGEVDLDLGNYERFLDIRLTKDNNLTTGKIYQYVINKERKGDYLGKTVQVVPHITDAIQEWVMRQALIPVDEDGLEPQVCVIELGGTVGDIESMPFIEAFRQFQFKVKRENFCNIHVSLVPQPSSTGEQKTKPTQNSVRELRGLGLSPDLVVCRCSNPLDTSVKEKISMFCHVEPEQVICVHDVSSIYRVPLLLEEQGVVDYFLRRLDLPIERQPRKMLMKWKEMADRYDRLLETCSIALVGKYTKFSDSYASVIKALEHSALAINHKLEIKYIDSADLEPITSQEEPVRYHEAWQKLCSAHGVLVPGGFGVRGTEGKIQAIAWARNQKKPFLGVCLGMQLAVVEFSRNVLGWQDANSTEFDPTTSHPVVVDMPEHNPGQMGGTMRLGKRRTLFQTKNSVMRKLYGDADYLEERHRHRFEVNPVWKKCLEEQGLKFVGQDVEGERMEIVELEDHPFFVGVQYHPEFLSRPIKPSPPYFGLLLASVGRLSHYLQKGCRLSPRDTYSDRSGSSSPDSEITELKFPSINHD
# Outline: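 Enzyme preincubated with compound for 10 min at 25 °C in 50 mM Tris pH 8.0, 10 mM MgCl2, 0.01% Tween-20, 2 mM L-cysteine. ATP-to-ADP conversion detected by ADP-Glo Max luminescence after 60 min depletion and 60 min development steps. Percentage inhibition calculated per concentration.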
# human CTPS1 [2] = target: T1, human CTPS1; test: RapidFire/MS-based enzyme selectivity assay (human CTPS1 versus CTPS2), CTPS1 isoform; format: biochemical
# Outline: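 Full-length C-terminal FLAG-His-tagged CTPS1 (1-591) was preincubated 10 min at 25 °C with compound in HEPES pH 8.0 buffer with MgCl2, KCl, DTT and Tween-20. Reactions were started with a 2× mix of ATP 0.3 mM, UTP 0.2 mM, GTP 0.07 mM and L-glutamine 0.1 mM, and run in the linear phase at 25 °C. IC50 comes from the RapidFire-MS ratio of CTP to 13C9-15N3-CTP.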
# [3] = Table 16, human CTPS1 over human CTPS2, RapidFire/MS IC50 values
SMILES,Selectivity (fold selectivity between CTPS1 and CTPS2) (human CTPS1 [2]; [3]),other results
"CCOc1cncc(-c2ccc(NC(=O)C3(c4ccnc(NS(=O)(=O)C5CC5)n4)CCC(N(C)C)CC3)nc2)n1 (single isomer, unassigned) [P230, 1-(2-(cyclopropanesulfonamido)pyrimidin-4-yl)-4-(dimethylamino)-N-(5-(6-ethoxypyrazin-2-yl)pyridin-2-yl)cyclohexane-1-carboxamide]",–,"IC50 (human CTPS1 [1]; Table 12, ADP-Glo Max assay, read-out: CTPS1 (Human CTPS1 Enzyme Inhibition data grouped by potency range)): 1000 to 10000 nM; Selectivity (fold selectivity between CTPS1 and CTPS2) (human CTPS1 [2]; RapidFire/MS IC50 values of CTPS1 and CTPS2, Table 17): + (2-30 fold (+))"
"CCOc1cncc(-c2ccc(NC(=O)C(F)(CC)c3ccnc(NS(=O)(=O)C4CC4)n3)nc2)n1 (stereo not drawn) [P112, 2-(2-(Cyclopropanesulfonamido)pyrimidin-4-yl)-N-(5-(6-ethoxypyrazin-2-yl)pyridin-2-yl)-2-fluorobutanamide]",–,"IC50 (human CTPS1 [1]; ADP-Glo Max assay, human full length CTPS1, read-out: CTPS1 (Human CTPS1 Enzyme Inhibition data grouped by potency range, IC50)): < 100 nM; Selectivity (fold selectivity between CTPS1 and CTPS2) (human CTPS1 [2]; RapidFire/MS IC50 values of CTPS1 and CTPS2, Table 15): ++ (>30-60 fold (++))"
"CCOc1cncc(-c2ccc(C(=O)NC(C)(C)c3csc(NS(=O)(=O)C4CC4)n3)c(C(F)(F)F)c2)n1 [R47, N-(2-(2-(cyclopropanesulfonamido)thiazol-4-yl)propan-2-yl)-4-(6-ethoxypyrazin-2-yl)-2-(trifluoromethyl)benzamide]",+ (2-30 fold (+)),–
"COc1cc(-c2cncc(C(F)(F)F)n2)ccc1C(=O)NC(C)(C)c1csc(NS(=O)(=O)C2CC2)n1 [R48, N-(2-(2-(cyclopropanesulfonamido)thiazol-4-yl)propan-2-yl)-2-methoxy-4-(6-(trifluoromethyl)pyrazin-2-yl)benzamide]",++ (>30-60 fold (++)),–
"CC(C)(NC(=O)c1ccc(-c2cncc(C(F)(F)F)n2)cc1)c1csc(NS(=O)(=O)C2CC2)n1 [R51, N-(2-(2-(cyclopropanesulfon-amido)thiazol-4-yl)propan-2-yl)-4-(6-(trifluoromethyl)pyrazin-2-yl)benzamide]",++ (>30-60 fold (++)),–
"CC(C)(NC(=O)c1ccc(-c2cncc(Cl)n2)cc1)c1csc(NS(=O)(=O)C2CC2)n1 [R52, 4-(6-chloropyrazin-2-yl)-N-(2-(2-(cyclopropanesulfon-amido)thiazol-4-yl)propan-2-yl)benzamide]",+++ (>60 fold (+++)),–
"COc1cncc(-c2ccc(C(=O)NC(C)(C)c3csc(NS(=O)(=O)C4CC4)n3)cc2)n1 [R54, N-(2-(2-(cyclopropanesulfon-amido)thiazol-4-yl)propan-2-yl)-4-(6-methoxypyrazin-2-yl)benzamide]",+ (2-30 fold (+)),–
"CCOc1cncc(-c2ccc(C(=O)NC(C)(C)c3csc(NS(=O)(=O)C4CC4)n3)cc2)n1 [R55, N-(2-(2-(cyclopropanesulfon-amido)thiazol-4-yl)propan-2-yl)-4-(6-ethoxypyrazin-2-yl)benzamide]",+++ (>60 fold (+++)),–
"CC(C)Oc1cncc(-c2ccc(C(=O)NC(C)(C)c3csc(NS(=O)(=O)C4CC4)n3)cc2)n1 [R56, N-(2-(2-(cyclopropanesulfon-amido)thiazol-4-yl)propan-2-yl)-4-(6-isopropoxypyrazin-2-yl)benzamide]",+++ (>60 fold (+++)),–
CCOc1cncc(-c2ccc(C(=O)NC(C)(C)c3nc(NS(=O)(=O)C4CC4)sc3Cl)nc2)n1 [R73],+ (2-30 fold (+)),–
"CCOc1cncc(-c2ccc(C(=O)NC(C)(C)c3nc(NS(=O)(=O)C4CC4)sc3C)c(F)c2)n1 [R74, N-(2-(2-(cyclopropanesulfon-amido)-5-methylthiazol-4-yl)propan-2-yl)-4-(6-ethoxypyrazin-2-yl)-2-fluorobenzamide]",++ (>30-60 fold (++)),–
"CCOc1cncc(-c2ccc(C(=O)NC(C)(C)c3nc(NS(=O)(=O)C4CC4)sc3Cl)c(F)c2)n1 [R75, N-(2-(5-chloro-2-(cycloprop-anesulfonamido)thiazol-4-yl)propan-2-yl)-4-(6-ethoxypyrazin-2-yl)-2-fluorobenzamide]",+++ (>60 fold (+++)),–
"Cc1cc(-c2cncc(C(F)(F)F)n2)ccc1C(=O)NC(C)(C)c1nc(NS(=O)(=O)C2CC2)sc1C [R76, N-(2-(2-(cyclopropanesulfon-amido)-5-methylthiazol-4-yl)propan-2-yl)-2-methyl-4-(6-(trifluoromethyl)pyrazin-2-yl)benzamide]",+ (2-30 fold (+)),–
"Cc1sc(NS(=O)(=O)C2CC2)nc1C(C)(C)NC(=O)c1ccc(-c2cncc(C(F)(F)F)n2)cc1 [R78, N-(2-(2-(cyclopropanesulfon-amido)-5-methylthiazol-4-yl)propan-2-yl)-4-(6-(trifluoromethyl)pyrazin-2-yl)benzamide]",++ (>30-60 fold (++)),–
"CC(C)(NC(=O)c1ccc(-c2cncc(C(F)(F)F)n2)cc1)c1nc(NS(=O)(=O)C2CC2)sc1Cl [R79, N-(2-(5-chloro-2-(cycloprop-anesulfonamido)thiazol-4-yl)propan-2-yl)-4-(6-(trifluoromethyl)pyrazin-2-yl)benzamide]",+ (2-30 fold (+)),–
"CCOc1cncc(-c2ccc(C(=O)NC3(c4csc(NS(=O)(=O)C5CC5)n4)CC3)nc2)n1 [R80, N-(1-(2-(cyclopropanesulfon-amido)thiazol-4-yl)cyclo-propyl)-5-(6-ethoxypyrazin-2-yl)picolinamide]",+++ (>60 fold (+++)),–
"CCOc1cncc(-c2ccc(C(=O)NC3(c4csc(NS(=O)(=O)C5CC5)n4)CC3)c(F)c2)n1 [R82, N-(1-(2-(cyclopropanesulfon-amido)thiazol-4-yl)cyclo-propyl)-4-(6-ethoxypyrazin-2-yl)-2-fluorobenzamide]",+++ (>60 fold (+++)),–
"Cc1cc(-c2cncc(C(F)(F)F)n2)ccc1C(=O)NC1(c2csc(NS(=O)(=O)C3CC3)n2)CC1 [R83, N-(1-(2-(cyclopropanesulfon-amido)thiazol-4-yl)cyclopropyl)-2-methyl-4-(6-(trifluoromethyl)pyrazin-2-yl)benzamide]",+++ (>60 fold (+++)),–
"O=C(NC1(c2csc(NS(=O)(=O)C3CC3)n2)CC1)c1ccc(-c2cncc(C(F)(F)F)n2)cc1 [R84, N-(1-(2-(cyclopropanesulfon-amido)thiazol-4-yl)cyclopropyl)-4-(6-(trifluoromethyl)pyrazin-2-yl)benzamide]",+++ (>60 fold (+++)),–
"CCc1cncc(-c2ccc(C(=O)NC(CCOC)c3csc(NS(=O)(=O)C4CC4)n3)c(F)c2)n1 (stereo not drawn) [R86, N-(1-(2-(cyclopropanesulfon-amido)thiazol-4-yl)-3-methoxypropyl)-4-(6-ethyl-pyrazin-2-yl)-2-fluorobenzamide]",+++ (>60 fold (+++)),–
"COCCC(NC(=O)c1ccc(-c2cncc(C(F)(F)F)n2)cc1F)c1csc(NS(=O)(=O)C2CC2)n1 (stereo not drawn) [R87, N-(1-(2-(cyclopropanesulfon-amido)thiazol-4-yl)-3-methoxypropyl)-2-fluoro-4-(6-(trifluoromethyl)pyrazin-2-yl)benzamide]",++ (>30-60 fold (++)),–
"CCOc1cncc(-c2ccc(C(=O)NC(CCOC)c3csc(NS(=O)(=O)C4CC4)n3)c(F)c2)n1 (stereo not drawn) [R88, N-(1-(2-(cyclopropanesulfon-amido)thiazol-4-yl)-3-methoxypropyl)-4-(6-ethoxypyrazin-2-yl)-2-fluorobenzamide]",+++ (>60 fold (+++)),–
"COCCC(NC(=O)c1ccc(-c2cncc(OC(C)C)n2)cc1F)c1csc(NS(=O)(=O)C2CC2)n1 (stereo not drawn) [R89, N-(1-(2-(cyclopropanesulfon-amido)thiazol-4-yl)-3-methoxypropyl)-2-fluoro-4-(6-isopropoxypyrazin-2-yl)benzamide]",+++ (>60 fold (+++)),–
"CCOc1cncc(-c2ccc(C(=O)NC(CCOC)c3csc(NS(=O)(=O)C4CC4)n3)cc2)n1 (stereo not drawn) [R90, N-(1-(2-(cyclopropanesulfon-amido)thiazol-4-yl)-3-methoxypropyl)-4-(6-ethoxy-pyrazin-2-yl)benzamide]",++ (>30-60 fold (++)),–
"CCOc1cncc(-c2ccc(C(=O)NC(C)c3csc(NS(=O)(=O)C4CC4)n3)c(F)c2)n1 (stereo not drawn) [R91, N-(1-(2-(cyclopropanesulfon-amido)thiazol-4-yl)ethyl)-4-(6-ethoxypyrazin-2-yl)-2-fluorobenzamide]",+++ (>60 fold (+++)),–
